From ChEMBL document CHEMBL1201862, “PubChem BioAssay data set” (2004) come the findings set out here.

Test systems include HOP-62; RPMI-8226; UACC-62; SN12C; OVCAR-3; Malme-3M; SR; LXFL 529; HT-29; CAKI-1; CCRF-CEM; A498; NCI-H522; IGROV-1; ACHN; HCC 2998; COLO 205; SW-620.
Holding throughout (experiment): NCI anticancer screen, dose series, 48 h

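These data come from cells grown in 96-well plates and exposed to compound for 48 hours at five concentrations. GI50 is the concentration that inhibits growth by half.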 Calls of active or inactive are those of the source. Rule as the data show it: active = GI50 up to about 1.1 µM and inactive = higher.

As to `CN(C)CC1CCCC/C1=N/OC(=O)c1ccc(Cl)c(Cl)c1` (stereo not drawn), the GI50 in the experiment on HOP-62, in the experiment with RPMI-8226, with UACC-62, in the experiment on SN12C, in the experiment on OVCAR-3 and in the experiment on Malme-3M was > 100 µM (inactive) in each case. The GI50 in the experiment on SR, in the experiment on LXFL 529, with HT-29, in the experiment on CAKI-1, with CCRF-CEM and in the experiment with A498 was > 100 µM (inactive) throughout. Further, the GI50 with NCI-H522, in the experiment with IGROV-1, in the experiment with ACHN, in the experiment with HCC 2998, in the experiment with COLO 205 and in the experiment on SW-620 was > 100 µM (inactive) in each case.
`C=C1C(=O)O[C@H]2[C@H]1[C@H](OC(=O)/C(C)=C\C)CC(=C)[C@@H]1[C@H](O)[C@H]3O[C@@]3(C)[C@@]12O` [EUPATUNDIN]: the GI50 in the experiment on HOP-62, in the experiment with RPMI-8226, in the experiment with UACC-62, in the experiment on SN12C, with OVCAR-3 and in the experiment with Malme-3M was > 100 µM (inactive) in each case. Also, the GI50 in the experiment on SR, in the experiment on LXFL 529, in the experiment with HT-29, with CAKI-1, in the experiment with CCRF-CEM and with NCI-H522 was > 100 µM (inactive) in each case. Moreover, the GI50 in the experiment on IGROV-1, with ACHN, in the experiment on HCC 2998, with COLO 205 and in the experiment on SW-620 was > 100 µM (inactive) throughout.
Turning to `C=C[C@@]1(C)CCC2(O)C(CCC3C2(C)CCC[C@@]3(C)COC(=O)CC(=O)OC)C1` (stereo partly drawn), the GI50 in the experiment on HOP-62 was 18.5 µM (inactive); in the experiment on RPMI-8226, 19.8 µM (inactive); in the experiment with UACC-62 it was 17.2 µM (inactive); in the experiment with SN12C, 19.9 µM (inactive); in the experiment with OVCAR-3 it was 17.3 µM (inactive); in the experiment on Malme-3M, 17.7 µM (inactive). The GI50 in the experiment with SR was 22.2 µM (inactive); in the experiment with LXFL 529, 17.3 µM (inactive); with HT-29, 18.9 µM (inactive); in the experiment on CAKI-1, > 100 µM (inactive); in the experiment with CCRF-CEM it was 32.7 µM (inactive); in the experiment with NCI-H522 it was 16.3 µM (inactive). The GI50 in the experiment with IGROV-1 was 26.5 µM (inactive); with ACHN, 40.1 µM (inactive); with HCC 2998 it was 61.4 µM (inactive); in the experiment on SW-620 it was 17.6 µM (inactive).
With `CCCCCCCCC(=O)CCCCCCCCC(=O)O`, the GI50 in the experiment on HOP-62 is 26.9 µM (inactive); in the experiment on RPMI-8226 it was 16.7 µM (inactive); with UACC-62, 20.1 µM (inactive); with SN12C, 25.6 µM (inactive); in the experiment on OVCAR-3, 18.8 µM (inactive); in the experiment on Malme-3M it was 31.3 µM (inactive). For the same compound, the GI50 in the experiment with SR was 16.2 µM (inactive); in the experiment with LXFL 529, 27 µM (inactive); in the experiment with HT-29 it was 23 µM (inactive); in the experiment on CAKI-1, 34.5 µM (inactive); in the experiment with CCRF-CEM it was 28.6 µM (inactive); in the experiment with A498, 23.9 µM (inactive). Besides, the GI50 in the experiment on NCI-H522 was 25.5 µM (inactive); with IGROV-1, 18.7 µM (inactive); in the experiment on ACHN, 25.3 µM (inactive); with COLO 205 it was 21.8 µM (inactive); in the experiment with SW-620, 39.7 µM (inactive).
As to `O=C(c1ccccc1)c1nnc(C(=O)c2ccccc2)nn1`, the GI50 in the experiment on HOP-62, in the experiment with RPMI-8226, in the experiment on UACC-62, in the experiment on SN12C, with OVCAR-3 and in the experiment with Malme-3M was > 344 µM (inactive) in each case. Further, the GI50 in the experiment on SR is 4.45 µM (inactive); in the experiment on LXFL 529, 266 µM (inactive); in the experiment with HT-29, > 344 µM (inactive); in the experiment with CAKI-1, > 344 µM (inactive); in the experiment with CCRF-CEM, 265 µM (inactive); in the experiment with NCI-H522, 134 µM (inactive). For the same compound, the GI50 is > 344 µM (inactive) in the experiment on IGROV-1; > 344 µM (inactive) in the experiment with ACHN; 36.3 µM (inactive) with HCC 2998; > 344 µM (inactive) in the experiment on COLO 205; > 344 µM (inactive) with SW-620.
As for `Sc1nnc(-c2ccccc2)n1/N=C\c1ccc(-c2ccc(Cl)cc2)o1`, the GI50 in the experiment with HOP-62, in the experiment with RPMI-8226, in the experiment on UACC-62, with OVCAR-3, in the experiment on SR and in the experiment with LXFL 529 was > 100 µM (inactive) in each case. The GI50 in the experiment on HT-29, in the experiment with NCI-H522, in the experiment with IGROV-1, with ACHN, in the experiment on COLO 205 and with SW-620 was > 100 µM (inactive) throughout.
Take `Cc1ccc2ccc(-c3ccccc3)c3c2c1C(=O)c1ccccc1C3=O`: the GI50 is 54.3 µM (inactive) with HOP-62; > 100 µM (inactive) in the experiment with RPMI-8226; 92.7 µM (inactive) in the experiment on UACC-62; > 100 µM (inactive) in the experiment with SN12C; 71.8 µM (inactive) with OVCAR-3; > 100 µM (inactive) in the experiment with Malme-3M. The GI50 in the experiment on SR was > 100 µM (inactive); with LXFL 529, > 100 µM (inactive); with HT-29, > 100 µM (inactive); in the experiment with CCRF-CEM it was > 100 µM (inactive); in the experiment with A498, 74 µM (inactive); with NCI-H522 it was 36.1 µM (inactive). Further, the GI50 is > 100 µM (inactive) with IGROV-1; 58.5 µM (inactive) in the experiment with ACHN; > 100 µM (inactive) with HCC 2998; > 100 µM (inactive) in the experiment with COLO 205; > 100 µM (inactive) in the experiment with SW-620.
Regarding `COc1cc(Nc2nc3cc(C(F)(F)F)ccc3nc2-c2ccccc2)cc(OC)c1OC`, the GI50 in the experiment on HOP-62 is 18.9 µM (inactive); in the experiment with UACC-62, 75.2 µM (inactive); in the experiment with SN12C, > 100 µM (inactive); in the experiment with OVCAR-3, 73.3 µM (inactive); with Malme-3M, > 100 µM (inactive); with SR, > 100 µM (inactive). Also, the GI50 with LXFL 529 is > 100 µM (inactive); in the experiment on HT-29, > 100 µM (inactive); in the experiment with CAKI-1, < 0.01 µM (active); in the experiment on CCRF-CEM, > 100 µM (inactive); in the experiment on A498, > 100 µM (inactive); with NCI-H522, 37.8 µM (inactive). In addition, the GI50 was 27 µM (inactive) in the experiment on IGROV-1; 65.5 µM (inactive) with ACHN; > 100 µM (inactive) in the experiment with HCC 2998; > 100 µM (inactive) in the experiment on COLO 205; > 100 µM (inactive) in the experiment on SW-620.
Turning to `CSC1CC2C(CC1(C)SC)C2(C)C` (stereo not drawn), the GI50 in the experiment on HOP-62 was > 100 µM (inactive); with RPMI-8226, 24.3 µM (inactive); in the experiment with UACC-62 it was 60.7 µM (inactive); in the experiment with OVCAR-3 it was 37.9 µM (inactive); with Malme-3M it was 41.8 µM (inactive); with SR, 30.8 µM (inactive). Also, the GI50 with LXFL 529 is > 100 µM (inactive); in the experiment with HT-29 it was 38.8 µM (inactive); with CAKI-1, > 100 µM (inactive); with CCRF-CEM, 28.2 µM (inactive); in the experiment on A498, > 100 µM (inactive); in the experiment with NCI-H522, > 100 µM (inactive). The GI50 is 42.8 µM (inactive) in the experiment on IGROV-1; > 100 µM (inactive) in the experiment with ACHN; 87.1 µM (inactive) with HCC 2998; 37.3 µM (inactive) in the experiment with COLO 205; > 100 µM (inactive) in the experiment on SW-620.
